According to US10385108B2, “Peptide analogs of alpha-melanocyte stimulating hormone” (Genzyme Corporation, priority 2008, dated 2019):

Key:
[1] = Serum levels after a single dose in mice; assay type: in vivo
[2] = Peptide stability in plasma or PBS in vitro at 37° C.; assay type: in vitro ADME; settings: 24 hours
Method: The stability of RI-α-MSH was determined by incubation in plasma or PBS in vitro at 37° C. for 24 hours. Aliquots were taken and proteins precipitated with 2 volumes of acetonitrile. α-MSH was used as a control and bradykinin as an internal standard. After centrifugation, samples were frozen at −80° C. until LC/MS/MS (MRM) analysis using a C18 column separation and positive electrospray ionization mode.

MC1R = MC1R (Homo sapiens, UniProt Q01726); test: Competitive binding with 125I-NDP-MSH, HEK293 membrane preparations, MC1R;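 note: Read-out: receptor-bound radioligand retained by filtration and counted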
Method: (§1) Binding analysis was done by Cerep laboratories (Paris, France) with coded samples.
(§2) The mixtures were filtered through 96-well GFC filters (Millipore, Billerica, Mass.), washed 3 times with binding buffer without BSA, dried and counted.
(§3) A competitive binding assay using a MCR panel including MCR 1, 3, 4, and 5 was performed.

C57BL/6 mice [3] = test: MOG35-55 induced EAE model; assay type: in vivo
MC5R = MC5R (Homo sapiens, UniProt P33032); test: Competitive binding with 125I-NDP-MSH, HEK293 membrane preparations, MC5R
Method: as §1, §2, §3

C57BL/6 mice [4] = test: MOG35-55 primed mice treated in the priming phase: recall response, cytokines, macrophage markers; assay type: in vivo
Method: C57BL/6 mouse splenocytes and lymph node cells were cultured in 96 well plates 5×10^5 cells/well. MOG35-55 or OVA 257-264 peptide was added to wells at a concentration of 25 μg/ml. Supernatant was collected at 48 hrs after MOG peptide stimulation. After 3 days in culture cells were pulsed with [3H] thymidine at 1 μCi/well for 8 hrs. Thymidine incorporation was measured by cpm.
Total RNA was extracted from tissues with TRIZOL® (Invitrogen, Carlsbad, Calif.). 1 μg of total RNA was reverse transcribed and used in quantitative PCR by using SYBR® green incorporation with reagents from Applied Biosystems (Foster City, Calif.) on an ABI 7900. A cDNA standard was run in each PCR for cytokine targets and message concentrations were normalized to mouse β-actin. […] The sequences for mouse IL-10 primers were forward: […] (SEQ ID NO:29) and reverse: […] (SEQ ID NO:30) (2). The sequences for mouse β-actin primers were: forward […] (SEQ ID NO:31) and reverse […] (SEQ ID NO:32) (3).
Flow cytometric analysis of inflammatory cytokine profiles of mouse serum or cell supernatant were measured using the Cytometric Bead Array Kit (CBA) made by BD Biosciences (San Jose, Calif.). Samples were processed according to the manufacturer's protocol.
On Day 9, spleen and draining lymph nodes were harvested and analyzed for recall responses to MOG35-55 peptide in vitro by [3H] thymidine incorporation.
Cytokine levels were evaluated through a cytometric bead array by flow cytometry.
Spleens from individual mice were harvested on Day 9 and mRNA cytokine expression was quantitated using real time PCR. […] Naïve mice that were not immunized with MOG peptide were used to quantitate baseline mRNA levels of TNF-α and IL-10.
Blood serum samples were also collected on day 9 of the study and evaluated for cytokine levels: TNF-α, MCP-1, IL-12, IL-10, and IL-6 (FIGS. 13C and 13D).

[5] = Example 10, 100 μg/mouse i.p. daily from day 10
[6] = 100 μg i.p. days 2-8, harvested day 9

MC1R, sequence (Q01726 whole entry): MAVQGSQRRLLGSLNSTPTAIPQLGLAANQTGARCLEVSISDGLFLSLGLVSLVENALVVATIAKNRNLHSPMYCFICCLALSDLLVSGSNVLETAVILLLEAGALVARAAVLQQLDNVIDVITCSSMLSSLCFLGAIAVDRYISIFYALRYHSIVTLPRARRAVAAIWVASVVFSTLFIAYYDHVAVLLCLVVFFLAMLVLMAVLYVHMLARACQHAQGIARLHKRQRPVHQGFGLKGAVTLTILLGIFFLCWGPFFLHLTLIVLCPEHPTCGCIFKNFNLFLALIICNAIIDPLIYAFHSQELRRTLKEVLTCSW
MC5R, sequence (P33032 whole entry): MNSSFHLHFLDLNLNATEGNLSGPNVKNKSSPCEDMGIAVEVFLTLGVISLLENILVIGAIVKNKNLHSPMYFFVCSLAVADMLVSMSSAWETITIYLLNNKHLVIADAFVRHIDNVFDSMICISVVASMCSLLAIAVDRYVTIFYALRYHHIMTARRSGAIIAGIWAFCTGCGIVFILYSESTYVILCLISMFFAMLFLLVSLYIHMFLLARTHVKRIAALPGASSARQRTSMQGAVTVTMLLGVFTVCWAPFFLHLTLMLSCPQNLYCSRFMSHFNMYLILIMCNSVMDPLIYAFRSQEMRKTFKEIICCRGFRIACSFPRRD

CSCC[C@@H](NC(=O)[C@@H](CCC(=O)O)NC(=O)[C@@H](Cc1c[nH]cn1)NC(=O)[C@@H](Cc1ccccc1)NC(=O)[C@@H](CCCNC(=N)N)NC(=O)[C@@H](Cc1c[nH]c2ccccc12)NC(=O)CNC(=O)[C@@H](CCCCN)NC(=O)[C@H]1CCCN1C(=O)[C@H](NC(C)=O)C(C)C)C(=O)N[C@H](CO)C(=O)N[C@H](Cc1ccc(O)cc1)C(=O)N[C@H](CO)C(N)=O [RI-MSH, vpkGwrfhemsys]
serum half-life compared (in words) ([1]; mouse, in vivo, iv): longer serum half-life than native α-MSH
serum levels after a single dose (in words) ([1]; single dose of 100 μg, mice, n=5): measurable serum levels of RI-α-MSH after 24 hrs
stability in PBS (in words) [2]: stable both in PBS and plasma
stability in plasma (in words) ([2]; in vitro): no detectable degradation over 24 hours
affinity for MC1R lower than that of the native MSH peptide (MC1R): 11 fold
Ki (MC1R; Ki MC1R, competition with 125I-NDP-MSH): 0.0046 ± 0.0013 µM
binding to MCR-1 (in words) (MC1R; MCR panel 1, 3, 4, 5): bind only to MCR-1
spinal cord histopathology (in words) (C57BL/6 mice [3]; 100 μg/mouse i.p. daily from day 10, day 24): lack focal area of inflammation
TNF-α mRNA in spleen vs PBS (in words) (C57BL/6 mice [3]; Day 1 and Day 4 of treatment): no significant change
IL-10 mRNA in spleen vs PBS (in words) (C57BL/6 mice [3]; Day 7 of treatment): reduced
maximum percent incidence of disease (C57BL/6 mice [3]; [5]): 20%
mean clinical disease score vs PBS (in words) (C57BL/6 mice [3]; [5]): significant reduction in the mean clinical disease score
mean clinical scores (in words) (C57BL/6 mice [3]; Example 11, 30 μg/mouse i.p. daily from day 10): did not have a significant effect
maximum percent incidence of disease (C57BL/6 mice [3]; Example 11, dexamethasone 2 mg/kg): 35%
mean clinical disease score vs PBS (in words) (C57BL/6 mice [3]; Example 11, peptides 100 μg/mouse, dexamethasone 2 mg/kg, i.p. daily from day 10): reduction in the mean clinical disease score
TNF-α mRNA in spleen vs PBS (in words) (C57BL/6 mice [3]; after 7 days of daily treatment): significantly decreased
IL-10 mRNA in spleen vs PBS (in words) (C57BL/6 mice [3]; earlier timepoints (Day 1 and 4)): no difference
Ki (MC5R; Ki MC5R, competition with 125I-NDP-MSH, cells noted in μM): ~25 µM
binding to MCR-5 (in words) (MC5R; MCR panel 1, 3, 4, 5): bind only to MCR-1
proliferative recall response of spleen cells to MOG35-55 (in words) (C57BL/6 mice [4]; [6]): slight reduction in recall responses
recall response of lymph node cells to MOG peptide (in words) (C57BL/6 mice [4]; [6]): did not show a significant difference
expression of CD86, CD40, CD14 on splenic CD11b+ or F4/80+ macrophages (in words) (C57BL/6 mice [4]; 7 days of daily dosing, 100 μg/mouse): no difference in the expression levels
TNF-α, IFNγ, IL-6 and MCP-1 levels in spleen cell supernatant vs PBS (in words) (C57BL/6 mice [4]; cells stimulated with MOG35-55 in vitro): decrease
serum IL-6 vs PBS (in words) (C57BL/6 mice [4]; day 9): decrease
serum IL-10 (in words) (C57BL/6 mice [4]; day 9): no difference
serum MCP-1 vs PBS (in words) (C57BL/6 mice [4]; day 9): significantly decreased
serum TNF-α and IL-12 vs PBS (in words) (C57BL/6 mice [4]; day 9): decrease
IL-10 and TNF-α mRNA in spleen vs PBS (in words) (C57BL/6 mice [4]; priming phase, treated days 2-8, day 9): decreased levels
